Here are results for one compound from patent publication EP4818176A1, “TETRACYCLIC DERIVATIVE INHIBITOR, AND PREPARATION METHOD AND USE THEREFOR” (Shanghai Hansoh Biomedical Co., Ltd., priority 2023, dated 2025).

In one data set the target is hERG potassium channel (Homo sapiens, UniProt Q12809). The experiment in a line: hERG potassium channel inhibitory activity assay (CHO-hERG cells, tail current). It is filed as cell-based. Conditions: inhibition of tail current, read-out: inhibitory activity (IC50) against the cardiac hERG potassium channel. From the text:
Test Example 5: hERG potassium channel inhibitory activity assay
1 Study objective: The objective of this test example is to determine the inhibitory effect of the compound on the hERG potassium channel activity. 2 Experimental instruments and reagents: 2.1 Reagents
3. Experimental method • 3.1 Cell culture: The CHO cells stably expressing the hERG potassium channel (CHO-hERG) used in the experiment were obtained from Sophion Bioscience (Ballerup, Denmark), and passaged and cryopreserved at WuXi AppTec Co., Ltd. in Shanghai. The CHO-hERG cells were cultured and passaged in Ham's F-12 medium containing 1 × GlutaMAX, 10% foetal bovine serum, 100 µg/mL G418 and 100 µg/mL hygromycin B at 37°C with 5% CO2. • 3.2 Preparation of intracellular and extracellular solutions: The extracellular solution was prepared once a month, and aliquoted and stored in 1 L storage bottles. The intracellular solution was prepared once every three months, and aliquoted and cryopreserved at -20°C. The intracellular solution was thawed in a 37°C water bath before the experiment and then placed in an ice bath for later use. • 3.3 Preparation of compounds: The positive control drug amitriptyline hydrochloride and the compounds were dissolved in 100% DMSO (Sigma-Aldrich, D2650) to prepare 10 mM or 30 mM stock solutions. Before the experiment, the stock solutions of the test compounds were diluted with DMSO to prepare solutions 1000-fold or 333-fold higher than the desired test concentrations, and then further diluted 1000-fold or 333-fold with the extracellular solution to achieve the desired concentrations. • 3.4 Cell preparation: The CHO-hERG cells used in the experiment were cultured for at least two days. When the cell density reached more than 75%, the cells were digested with TrypLE, then resuspended in the extracellular solution, and centrifuged. The supernatant was discarded, and then the cells were further resuspended in 2 mL of extracellular solution for later use. • 3.4 Experimental data processing: In data processing, the peak tail current was baseline-corrected when evaluating the hERG blocking effect. The effect of each compound at various concentrations was expressed as the inhibition rate of the tail current. IC50 values were obtained by fitting the data to the Hill equation: I/Icontrol =Bottom + (Top-Bottom)/(1+10^((LogIC50-X) * HillSlope)) • Top: maximum effect; Bottom: minimum effect; Hillslope: slope; X: concentration of the test compound. • IC50: half-maximal inhibitory concentration of the test compound on hERG.
(In general: hERG is a cardiac potassium channel; its block is linked to QT prolongation.)

Data set [1] concerns the target T1, PRMT5/MEP50-MTA protein complex (Homo sapiens, UniProt O14744).
T1 construct: purchased Viva Biotech
The data set can be described thus: Thermal shift assay: thermal stability (melting temperature) of PRMT5/MEP50-MTA protein complex. It is filed as binding. Conditions: final compound concentration 8 µM; 2 µM PRMT5/MEP50, 2 µM MTA; Tm minus Tm of DMSO vehicle control. The gist of the method:
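Human PRMT5/MEP50 (2 µM) was preincubated 30 min with 2 µM MTA in 50 mM HEPES, 10 mM DTT, 250 mM NaCl with SYPRO Orange. Compound at 8 µM final (2.5% DMSO vehicle) was added for 10 minutes, then samples were heated 25°C to 95°C at 0.03°C/s. Tm was derived from the melt curve.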

The next data set relates to HCT116 wild-type cells. The data set can be described thus: Cell proliferation inhibition (CellTiter-Glo), HCT116 wild-type cells. Conditions: Homo sapiens, HCT-116, read-out: HCT116 IC50. The data set is classed as cell-based. A digest of the protocol:
(§1)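 Cells were grown in McCoy's 5A with 10% FBS, adhered overnight, then exposed to serial compound dilutions for 72-240 h at 37°C, 5% CO2, with a vehicle control. Viability was read as CellTiter-Glo luminescence, and IC50 came from nonlinear regression of inhibition rate against concentration.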

The nature of data set [2]: Pharmacokinetics in rats (plasma) after oral administration. Conditions: rat, po, SD rats, p.o. 5 mg/kg. The data set is classed as in vivo.
For data set [3], the system named is MTAP Knockout HCT116 cells. The data set can be described thus: Cell proliferation inhibition (CellTiter-Glo), HCT116 MTAP knockout cells. The data set is classed as cell-based. The gist of the method: as §1
(ATP-based viability assays read luminescence as a measure of living cells.)

T1 sequence (O14744 whole entry): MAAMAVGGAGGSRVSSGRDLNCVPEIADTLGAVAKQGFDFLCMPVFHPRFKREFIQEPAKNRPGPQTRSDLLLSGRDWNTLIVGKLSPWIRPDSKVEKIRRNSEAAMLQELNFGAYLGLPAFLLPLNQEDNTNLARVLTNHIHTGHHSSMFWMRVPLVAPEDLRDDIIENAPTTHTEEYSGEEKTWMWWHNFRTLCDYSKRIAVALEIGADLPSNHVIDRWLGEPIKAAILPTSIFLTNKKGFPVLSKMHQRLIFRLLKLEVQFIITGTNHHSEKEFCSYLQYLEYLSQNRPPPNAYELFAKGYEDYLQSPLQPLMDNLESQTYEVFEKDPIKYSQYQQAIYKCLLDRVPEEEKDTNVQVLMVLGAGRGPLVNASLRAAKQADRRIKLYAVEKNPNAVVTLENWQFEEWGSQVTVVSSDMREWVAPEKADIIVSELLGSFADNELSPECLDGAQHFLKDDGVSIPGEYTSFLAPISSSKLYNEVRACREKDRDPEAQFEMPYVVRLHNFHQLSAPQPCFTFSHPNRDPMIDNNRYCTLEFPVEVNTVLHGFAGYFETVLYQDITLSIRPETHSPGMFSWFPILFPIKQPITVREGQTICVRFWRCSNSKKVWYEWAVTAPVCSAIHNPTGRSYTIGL
T1 sequence (Q9BQA1 whole entry partner): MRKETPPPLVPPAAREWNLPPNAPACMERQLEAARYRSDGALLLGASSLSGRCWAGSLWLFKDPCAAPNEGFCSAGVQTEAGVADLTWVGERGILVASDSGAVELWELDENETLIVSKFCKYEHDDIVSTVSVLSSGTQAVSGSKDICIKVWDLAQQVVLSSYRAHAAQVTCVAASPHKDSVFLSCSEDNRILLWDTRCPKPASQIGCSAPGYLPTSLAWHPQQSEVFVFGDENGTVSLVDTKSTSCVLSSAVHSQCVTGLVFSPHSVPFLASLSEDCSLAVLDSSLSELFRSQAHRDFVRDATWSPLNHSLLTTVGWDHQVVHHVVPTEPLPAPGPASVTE
Sequence of hERG potassium channel (Q12809 whole entry): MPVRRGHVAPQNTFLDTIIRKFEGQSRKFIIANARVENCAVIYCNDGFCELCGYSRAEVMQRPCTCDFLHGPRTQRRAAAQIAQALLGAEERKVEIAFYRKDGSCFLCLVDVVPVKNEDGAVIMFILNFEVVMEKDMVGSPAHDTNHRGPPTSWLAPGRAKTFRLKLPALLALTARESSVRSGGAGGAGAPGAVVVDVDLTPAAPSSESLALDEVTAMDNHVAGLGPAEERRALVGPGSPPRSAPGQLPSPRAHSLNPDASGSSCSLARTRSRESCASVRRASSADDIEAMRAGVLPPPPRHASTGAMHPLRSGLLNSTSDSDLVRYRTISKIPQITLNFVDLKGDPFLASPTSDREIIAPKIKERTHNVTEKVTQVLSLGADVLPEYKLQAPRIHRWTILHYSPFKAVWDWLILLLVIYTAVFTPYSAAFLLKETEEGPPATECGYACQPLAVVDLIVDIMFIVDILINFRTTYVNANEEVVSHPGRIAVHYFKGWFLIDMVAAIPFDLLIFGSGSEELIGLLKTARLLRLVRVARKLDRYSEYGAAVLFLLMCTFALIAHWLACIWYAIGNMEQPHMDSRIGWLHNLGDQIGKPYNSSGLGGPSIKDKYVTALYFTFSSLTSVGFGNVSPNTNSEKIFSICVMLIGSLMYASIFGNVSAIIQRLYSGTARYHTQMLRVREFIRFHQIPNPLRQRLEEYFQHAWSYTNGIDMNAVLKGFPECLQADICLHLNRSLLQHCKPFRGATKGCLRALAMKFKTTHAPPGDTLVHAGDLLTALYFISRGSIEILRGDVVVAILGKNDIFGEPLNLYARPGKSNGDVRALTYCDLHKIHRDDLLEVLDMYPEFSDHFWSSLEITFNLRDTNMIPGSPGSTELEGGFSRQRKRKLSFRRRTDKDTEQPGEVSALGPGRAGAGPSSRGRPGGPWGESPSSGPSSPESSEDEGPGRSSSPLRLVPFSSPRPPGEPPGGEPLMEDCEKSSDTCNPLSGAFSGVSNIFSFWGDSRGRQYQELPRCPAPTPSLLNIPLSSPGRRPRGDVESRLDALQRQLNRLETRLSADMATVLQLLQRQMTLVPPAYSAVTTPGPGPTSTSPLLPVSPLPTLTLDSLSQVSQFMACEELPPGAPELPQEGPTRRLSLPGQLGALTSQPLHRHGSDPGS

Regarding `Nc1nc2cc3c(cc2c2c1COC2)C(=O)N(Cc1ccc(C(F)(F)F)cn1)CCCOC3` [Example 178, 4-Amino-12-((5-(trifluoromethyl)pyridin-2-yl)methyl)-3,7,9,10,11,12-hexahydrofuro[3,4-c][1,5]oxazolino[7,8-g]quinolin-13(1H)-one], the IC50 at hERG potassium channel was greater than 30 µM; in the data set on HCT116 wild-type cells it was 2.38 µM; in data set [3] (Homo sapiens, HCT-116, read-out: MTAP Knockout HCT116 IC50), 0.018 µM. Besides, in data set [1], the ΔTm at 8 µM is 11.2 °C. Besides, the AUC(0-inf) in data set [2] was 2790 ng·h/mL. This compound also showed a half-life in data set [2] of 1.9 h. The Cmax in data set [2] (read-out: Cmax) was found to be 544 ng/mL. The MRT inf in data set [2] (read-out: MRT0-∞) came to 3.7 h. The time to peak (Tmax) in data set [2] (read-out: tmax) was determined as 1.7 h. Moreover, the Selectivity in data set [3] (HCT116 IC50 versus MTAP Knockout HCT116 IC50) is recorded as 131.

What is called IC50 is the concentration needed to halve the response being measured. As a reminder, the ΔTm is the shift of the melting midpoint relative to a reference. As a reminder, the AUC(0-inf) is total exposure, with the tail of the curve extrapolated. As usually defined, the half-life is the time needed for the level to fall by half in the phase considered. Low readings indicate rapid decline, high ones slow decline. The Cmax is the highest concentration seen after dosing. In general, Tmax refers to the time at which the peak concentration occurs.
